Measurements as given in ChEMBL document CHEMBL1156099, “Pyrazolo[1,5-a]pyrimidine-based inhibitors of HCV polymerase” (Bioorg Med Chem Lett, 2009).
The source made the active and inactive calls. The calls are words filed in the database; no cut-off is given here.

Tests used:
[1] = Inhibition of HCV recombinant NS5B Cdelta21 RdRp expressed in Escherichia coli assessed as [3H]GTP incorporation after 3 hrs by scintillation proximity assay-based RNA polymerase assay; design: species or system Hepacivirus hominis
Hepatitis C virus = experiment: Antiviral activity against HCV infected in human hepatoma cells by RNA replicon assay; type: functional, organism-based; details: Hepacivirus hominis

Row | SMILES | IC50 ([1]; read-out: IC50) [nM] | Activity (Hepatitis C virus) | IC50 [1]
1 | O=C(O)c1cnn2c(C3CCCCC3)c(-c3ccc(F)cc3)cnc12 | 930 | Active | –
2 | O=C(N[C@H](Cc1ccc(O)cc1)C(=O)O)c1cnn2c(C3CCCCC3)c(-c3ccc(F)cc3)cnc12 | 960 | – | –
3 | O=C(N[C@@H](Cc1ccc(O)cc1)C(=O)O)c1cnn2c(C3CCCCC3)c(-c3ccc(F)cc3)cnc12 | 20 | – | –
4 | O=C(O)c1ccc(COc2ccc(-c3cnc4c(-c5nnn[nH]5)cnn4c3C3CCCCC3)cc2)cc1 | 42 | – | –
5 | Cc1c(-c2ccc(OCc3ccccc3)cc2)cnc2c(-c3nnn[nH]3)cnn12 | 12500 | – | –
6 | O=C(Nc1nnn[nH]1)c1cnn2c(C3CCCCC3)c(-c3ccc(OCc4ccccc4)cc3)cnc12 | 670 | – | –
7 | COC(=O)c1ccc(COc2ccc(-c3cnc4c(-c5nnn[nH]5)cnn4c3C3CCCCC3)cc2)cc1 | 190 | – | –
8 | c1ccc(COc2ccc(-c3cnc4c(-c5nnn[nH]5)cnn4c3-c3ccccc3)cc2)cc1 | – | – | Not Active
9 | c1ccc(Oc2ccc(-c3cnc4c(-c5nnn[nH]5)cnn4c3C3CCCCC3)cc2)cc1 | 400 | – | –
10 | c1ccc(COc2ccc(-c3cnc4c(-c5ncn[nH]5)cnn4c3C3CCCCC3)cc2)cc1 | 5700 | – | –
11 | c1ccc(COc2ccc(-c3cnc4c(-c5nnn[nH]5)cnn4c3C3CCOCC3)cc2)cc1 | 12000 | – | –
12 | CC(C)C[C@H](NC(=O)c1cnn2c(C3CCCCC3)c(-c3ccc(F)cc3)cnc12)C(=O)O | 290 | – | –
13 | O=C(O)c1cnn2c(C3CCCCC3)c(-c3ccc(OCc4ccccc4)cc3)cnc12 | 590 | Active | –
14 | c1ccc(COc2ccc(-c3cnc4c(-c5nnn[nH]5)cnn4c3C3CCSCC3)cc2)cc1 | 3400 | – | –
15 | CS(=O)(=O)c1cccc(-c2ccc(-c3cnc4c(-c5nnn[nH]5)cnn4c3C3CCCCC3)cc2)c1 | 930 | – | –
16 | NC(=O)[C@H](Cc1ccc(O)cc1)NC(=O)c1cnn2c(C3CCCCC3)c(-c3ccc(F)cc3)cnc12 | 24 | – | –
17 | O=C(O)c1ccc2c(c1)nc(-c1ccc(OCc3ccccc3)cc1)n2C1CCCCC1 | 530 | – | –
18 | FC(F)(F)c1cccc(COc2ccc(-c3cnc4c(-c5nnn[nH]5)cnn4c3C3CCCCC3)cc2)c1 | 400 | – | –
19 | c1cc(-c2cnc3c(-c4nnn[nH]4)cnn3c2C2CCCCC2)ccc1OC1CCCCC1 | 400 | – | –
20 | CC(C)c1c(-c2ccc(OCc3ccccc3)cc2)cnc2c(-c3nnn[nH]3)cnn12 | 8600 | – | –
21 | NC(=O)c1cnn2c(C3CCCCC3)c(-c3ccc(OCc4ccccc4)cc3)cnc12 | – | – | Not Active
22 | COc1cccc(Oc2ccc(-c3cnc4c(-c5nnn[nH]5)cnn4c3C3CCCCC3)cc2)c1 | 400 | – | –
23 | c1cc(COc2ccc(-c3cnc4c(-c5nnn[nH]5)cnn4c3C3CCCCC3)cc2)ccn1 | 710 | – | –

Row | SMILES | IC50 ([1]; read-out: IC50) [nM] | Activity (Hepatitis C virus) | IC50 [1]
24 | OCc1cnn2c(C3CCCCC3)c(-c3ccc(OCc4ccccc4)cc3)cnc12 | 12500 | – | –
25 | c1ccc(-c2ccc(-c3cnc4c(-c5nnn[nH]5)cnn4c3C3CCCCC3)cc2)cc1 | 2800 | – | –
26 | c1ccc(COc2ccc(-c3cnc4c(-c5nnn[nH]5)cnn4c3C3CC3)cc2)cc1 | – | – | Not Active
27 | O=C(N[C@H](Cc1c[nH]c2ccccc12)C(=O)O)c1cnn2c(C3CCCCC3)c(-c3ccc(F)cc3)cnc12 | 450 | – | –
28 | CC(C)Cc1c(-c2ccc(OCc3ccccc3)cc2)cnc2c(-c3nnn[nH]3)cnn12 | 6000 | – | –
29 | NCCCC[C@H](NC(=O)c1cnn2c(C3CCCCC3)c(-c3ccc(F)cc3)cnc12)C(=O)O | 480 | – | –
30 | O=C(NS(=O)(=O)c1ccccc1)c1cnn2c(C3CCCCC3)c(-c3ccc(OCc4ccccc4)cc3)cnc12 | 760 | – | –
31 | Fc1ccc(-c2cnc3c(-c4nnn[nH]4)cnn3c2C2CCCCC2)cc1F | 700 | – | –
32 | CS(=O)(=O)c1cccc(Oc2ccc(-c3cnc4c(-c5nnn[nH]5)cnn4c3C3CCCCC3)cc2)c1 | 200 | – | –
33 | c1ccc(COc2ccc(-c3cnc4c(-c5nnn[nH]5)cnn4c3C3CCCCC3)cc2)cc1 | 450 | Active | –
34 | O=C(N[C@@H](Cc1c[nH]c2ccc(O)cc12)C(=O)O)c1cnn2c(C3CCCCC3)c(-c3ccc(F)cc3)cnc12 | 11 | – | –
35 | O=C(N[C@@H](Cc1c[nH]c2ccccc12)C(=O)O)c1cnn2c(C3CCCCC3)c(-c3ccc(F)cc3)cnc12 | 20 | – | –
36 | O=C(NO)c1cnn2c(C3CCCCC3)c(-c3ccc(OCc4ccccc4)cc3)cnc12 | 1900 | – | –
37 | COC(=O)c1cccc(COc2ccc(-c3cnc4c(-c5nnn[nH]5)cnn4c3C3CCCCC3)cc2)c1 | 220 | – | –
38 | NC(=O)[C@H](Cc1c[nH]c2ccccc12)NC(=O)c1cnn2c(C3CCCCC3)c(-c3ccc(OCc4ccccc4)cc3)cnc12 | 90 | – | –
39 | COc1cccc(COc2ccc(-c3cnc4c(-c5nnn[nH]5)cnn4c3C3CCCCC3)cc2)c1 | 600 | – | –
40 | CS(=O)(=O)NC(=O)c1cnn2c(C3CCCCC3)c(-c3ccc(OCc4ccccc4)cc3)cnc12 | 1600 | – | –
41 | O=S1(=O)CCC(c2c(-c3ccc(OCc4ccccc4)cc3)cnc3c(-c4nnn[nH]4)cnn23)CC1 | – | – | Not Active
42 | CC(C)CCc1c(-c2ccc(OCc3ccccc3)cc2)cnc2c(-c3nnn[nH]3)cnn12 | 4600 | – | –
43 | O=C(O)c1cc2nc(-c3ccc(Cl)cc3)cc(-c3ccc(Oc4ccccc4)cc3)n2n1 | 6000 | – | –
44 | O=C(N[C@@H](Cc1ccccc1)C(=O)O)c1cnn2c(C3CCCCC3)c(-c3ccc(F)cc3)cnc12 | 2000 | – | –
45 | Cn1nnnc1-c1cnn2c(C3CCCCC3)c(-c3ccc(OCc4ccccc4)cc3)cnc12 | 50000 | – | –
46 | O=C(O)c1ccc2c(c1)nc(-c1ccoc1)n2C1CCCCC1 | 1600 | – | –
